Measured values reported in US20110224079A1, “SPIROHETEROCYCLIC N-OXYAMIDES AS PESTICIDES” (SYNGENTA CROP PROTECTION LLC, priority 2008, published 2011).

How the values were obtained:
[1] = tested on: Tetranychus urticae (two-spotted spider mite); test: Example B4: activity against Tetranychus urticae, sprayed bean leaf discs (feeding/residual contact, preventive); settings: foliar, 192 h, read-out: activity (egg, larval and adult mortality)
[2] = tested on: Myzus persicae (green peach aphid); test: Example B17: activity against Myzus persicae on sprayed pepper plants (feeding/residual contact); type: in vivo; settings: 144 h, infested pepper plants sprayed, 6 days
[3] = tested on: Myzus persicae (green peach aphid); test: Example B2: activity against Myzus persicae, pea seedling roots in test solution (systemic/feeding, curative); settings: 144 h, read-out: activity (mortality)
[4] = tested on: Myzus persicae (green peach aphid); test: Example B1: activity against Myzus persicae, sprayed sunflower leaf discs (feeding/residual contact, preventive); settings: foliar, 144 h, read-out: activity (mortality)
[5] = tested on: Myzus persicae (green peach aphid); test: Example B13: drench activity against Myzus persicae, pea seedlings in field soil; settings: 168 h, read-out: drench activity (mortality)

| Structure (SMILES) | mortality at 400 ppm [1] [%] | mortality at 200 ppm [2] [%] | mortality at 400 ppm [3] [%] | mortality at 400 ppm [4] [%] | mortality at 25 ppm [5] [%] |
| --- | --- | --- | --- | --- | --- |
| CCOC(=O)OC1=C(c2c(C)cc(C)cc2C)C(=O)N(OCC2CCCCC2)C12CCN(OC)CC2 [P1.105] | > 80 | – | – | – | – |
| CCOC(=O)OC1=C(c2c(C)cc(C)cc2C)C(=O)N(OCCCOC)C12CCN(OC)CC2 [P1.44] | > 80 | ≥ 80 | > 80 | > 80 | – |
| CCOC(=O)OC1=C(c2c(C)cc(C)cc2C)C(=O)N(OC2CCN(OC)CC2)C12CCN(OC)CC2 [P1.104] | > 80 | – | > 80 | – | – |
| CCOC(=O)OC1=C(c2c(Cl)ccc(C)c2F)C(=O)N(OC2CCCO2)C12CCN(OC)CC2 (stereo not shown) [P1.43] | > 80 | – | > 80 | – | – |
| COCCON1C(=O)C(c2c(C)cc(C)cc2Cl)=C(O)C12CCN(OC)CC2 [P2.35] | > 80 | – | > 80 | > 80 | – |
| CON1CCC2(CC1)C(O)=C(c1c(C)cc(C)cc1Br)C(=O)N2OC1CCCO1 (stereo not shown) [P2.69] | > 80 | ≥ 80 | > 80 | > 80 | – |
| CON1CCC2(CC1)C(O)=C(c1ccc(C)cc1C)C(=O)N2OC1CCCO1 (stereo not shown) [P2.33] | – | ≥ 80 | > 80 | > 80 | – |
| CCOC(=O)OC1=C(c2c(C)cc(C)cc2C)C(=O)N(OCC2CCC2)C12CCN(OC)CC2 [P1.106] | > 80 | ≥ 80 | > 80 | > 80 | – |
| CCOC(=O)OC1=C(c2c(C)cccc2C)C(=O)N(OCCOC)C12CCN(OC)CC2 [P1.73] | – | ≥ 80 | > 80 | > 80 | – |
| CON1CCC2(CC1)C(O)=C(c1c(C)cc(C)cc1Cl)C(=O)N2OC1CCCO1 (stereo not shown) [P2.94] | > 80 | ≥ 80 | > 80 | > 80 | – |
| CON1CCC2(CC1)C(O)=C(c1c(C)ccc(Cl)c1C)C(=O)N2OC [P2.40] | – | ≥ 80 | > 80 | > 80 | – |
| CCOC(=O)OC1=C(c2c(C)cc(C)cc2C)C(=O)N(OCC2CCCC2)C12CCN(OC)CC2 [P1.83] | > 80 | ≥ 80 | > 80 | – | – |
| CON1CCC2(CC1)C(O)=C(c1c(C)cccc1C)C(=O)N2OC [P2.78] | – | ≥ 80 | > 80 | > 80 | – |
| CON1CCC2(CC1)C(O)=C(c1c(Cl)ccc(C)c1F)C(=O)N2OC1CCCO1 (stereo not shown) [P2.45] | > 80 | – | – | – | – |
| CON1CCC2(CC1)C(O)=C(c1cc(C)ccc1C)C(=O)N2OC [P2.1] | – | – | > 80 | > 80 | > 80 |
| CON1CCC2(CC1)C(O)=C(c1c(C)cc(C)cc1C)C(=O)N2OC1COC1 [P2.66] | – | ≥ 80 | > 80 | > 80 | – |
| CON1CCC2(CC1)C(O)=C(c1c(Cl)ccc(C)c1F)C(=O)N2OC [P2.48] | > 80 | – | > 80 | – | – |
| CCOC(=O)OC1=C(c2cc(Br)ccc2C)C(=O)N(OCOC)C12CCN(OC)CC2 [P1.21] | > 80 | – | – | – | – |
| COCCON1C(=O)C(c2c(C)ccc(Cl)c2C)=C(O)C12CCN(OC)CC2 [P2.70] | – | ≥ 80 | > 80 | > 80 | – |
| CCOC(=O)OC1=C(c2c(C)cc(C)cc2C)C(=O)N(OCC2CCCOC2)C12CCN(OC)CC2 (stereo not shown) [P1.109] | > 80 | – | > 80 | > 80 | – |
| CCOC(=O)OC1=C(c2c(C)cc(C)cc2Br)C(=O)N(OC2CCCO2)C12CCN(OC)CC2 (stereo not shown) [P1.69] | > 80 | ≥ 80 | > 80 | > 80 | – |
| CCOC(=O)OC1=C(c2c(C)cc(C)cc2C)C(=O)N(OC2CCOCC2)C12CCN(OC)CC2 [P1.76] | > 80 | ≥ 80 | > 80 | – | – |
| CON1CCC2(CC1)C(O)=C(c1c(C)cc(C)cc1C)C(=O)N2OC1CCCCC1 [P2.26, 1-Cyclohexyloxy-4-hydroxy-8-methoxy-3-(2,4,6-trimethyl-phenyl)-1,8-diaza-spiro[4.5]dec-3-en-2-one] | > 80 | – | – | – | – |
| CCOC(=O)OC1=C(c2cc(C)c(C)cc2C)C(=O)N(OCOC)C12CCN(OC)CC2 [P1.56] | > 80 | ≥ 80 | > 80 | > 80 | – |
